# Laboratory results from PMC9266914, “Broad Spectrum Functional Activity of Structurally Related Monoanionic Au(III) Bis(Dithiolene) Complexes” (International Journal of Molecular Sciences, 2022).
# Biological target: T1, thioredoxin reductase (TrxR) (Rattus norvegicus, UniProt O89049)
# T1 construct: purchased Sigma-Aldrich
# T1 sequence (O89049 1-499): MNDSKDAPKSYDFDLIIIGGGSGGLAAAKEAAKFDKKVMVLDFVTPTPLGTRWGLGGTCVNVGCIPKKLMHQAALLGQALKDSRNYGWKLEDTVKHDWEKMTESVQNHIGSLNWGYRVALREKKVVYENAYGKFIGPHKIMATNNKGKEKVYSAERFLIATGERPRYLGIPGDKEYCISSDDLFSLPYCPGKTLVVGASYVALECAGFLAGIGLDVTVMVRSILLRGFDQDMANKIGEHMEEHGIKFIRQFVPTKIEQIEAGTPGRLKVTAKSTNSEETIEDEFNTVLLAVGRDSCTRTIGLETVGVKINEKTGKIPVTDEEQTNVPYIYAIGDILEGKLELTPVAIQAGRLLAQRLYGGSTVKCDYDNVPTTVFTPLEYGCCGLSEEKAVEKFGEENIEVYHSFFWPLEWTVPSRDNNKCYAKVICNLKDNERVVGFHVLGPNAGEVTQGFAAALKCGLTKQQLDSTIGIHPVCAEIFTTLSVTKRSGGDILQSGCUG
# Assay: Thioredoxin reductase inhibition, colorimetric DTNB assay
# Assay type: biochemical
# Conditions: 0.1 nM–2 µM
# Protocol: The effect of the selected gold complexes on the activity of TrxR was evaluated by a colorimetric DTNB assay as previously described. […] The substituent on the nitrogen atom of the thiazoline ring ([P][AuSEt(=S)] vs. [P][AuSBu(=S)]) and the nature of the exocyclic atom ([P][AuSEt(=S)] vs. [P][AuSEt(=Se)]) seemed to influence the inhibitory effect on the enzyme. The exocyclic selenium atoms of [P][AuSEt(=Se)] seemed to disfavor the intermolecular interaction with the enzyme in relation with the peripheral thione group of [P][AuSEt(=S)].
# The […] (TrxR) inhibition assays were performed using a commercial kit from Sigma-Aldrich, introducing minor modifications for a 96-well plate format. The assay is based on the reduction of DTNB (5,5′ dithiobis(2-nitrobenzoic acid)) into TNB (5-thio-2-nitrobenzoic acid) with the concomitant oxidation of NADPH, in a reaction catalyzed by TrxR [92]. The complexes were dissolved in DMSO to prepare serial concentrations in the range of 0.1 nM–2 µM. The reaction mixture (200 µL total volume) contained 11 μL assay buffer (phosphate buffer, pH 7.0 and 50 mM EDTA), 180 µL working buffer (phosphate buffer and 0.25 mM NADPH), 1 μL complexes’ solutions, 2 μL enzyme solution and 6 µL DTNB (0.1 M in DMSO). […] The formation of TNB was monitored at 412 nm with a plate spectrophotometer (Power Wave Xs, Bio-Tek).
smiles,measurement,value
"CC(=O)OC[C@H]1O[C@@H]([S-])[C@H](OC(C)=O)[C@@H](OC(C)=O)[C@@H]1OC(C)=O.CCP(CC)CC.[Au+] [Auranofin, reference compound]",IC50,26 ± 10 nM
